Measured values taken from article PMC6858373 (Scientific Reports, 2019).
Counter-ions that a name gives are not always drawn. Like-named read-outs stand apart in the source and are kept apart here.

Legend:
[1] = target: T1, FGF14:Nav1.6 C-tail complex (Homo sapiens, UniProt Q92915+Q9UQD0); experiment: Split-luciferase complementation assay (LCA) in Clone V double stable HEK293 cells; type: cell-based; details: for Split Luciferase Assay Z-score Set 1 / Split Luciferase Assay % Lum Set 1: biological replicate Set 1; for Split Luciferase Assay Z-score Set 1 / Split Luciferase Assay Z-score Set 2: normalized to on-plate 0.3% DMSO controls; for Split Luciferase Assay % Lum Set 1 / Split Luciferase Assay %Lum Set 2: normalized to on-plate 0.3% DMSO controls (n=16 per plate); for Split Luciferase Assay Z-score Set 2 / Split Luciferase Assay %Lum Set 2: biological replicate Set 2; for Split Luciferase Assay %Lum Avg: average of Set 1 and Set 2, normalized to 0.3% DMSO controls
T1 construct: polymerase chain reaction (PCR) amplification of the FGF14 open reading frame (nt 1–855); C-terminal fragment of Nav1.6 (amino acids 1763–1976) fused with CD4ΔC-tail (amino acids 1–395); expressed in transfected cells

[2] = target: full-length P. pyralis luciferase (Photinus pyralis, UniProt P08659, K549A/L550V/N119G/N50D/S548I); type: cell-based; details: for Luciferase Assay % Lum: full-length luciferase counter-screen luminescence; for Luciferase Assay Z-score: full-length luciferase counter-screen
in vitro = details: human
Clone V cells [3] = details: human
Clone V cells [4] = experiment: CellTiter Blue (CTB) cell viability counter-screen; details: CC_NCI screening; CTB cell viability fluorescence; normalized to on-plate 0.3% DMSO controls
[5] = CC_NCI screening, normalized to on-plate 0.3% DMSO controls
[6] = CC_NCI screening, LCA luminescence

T1 sequence (Q92915 1-252 isoform Q92915-2): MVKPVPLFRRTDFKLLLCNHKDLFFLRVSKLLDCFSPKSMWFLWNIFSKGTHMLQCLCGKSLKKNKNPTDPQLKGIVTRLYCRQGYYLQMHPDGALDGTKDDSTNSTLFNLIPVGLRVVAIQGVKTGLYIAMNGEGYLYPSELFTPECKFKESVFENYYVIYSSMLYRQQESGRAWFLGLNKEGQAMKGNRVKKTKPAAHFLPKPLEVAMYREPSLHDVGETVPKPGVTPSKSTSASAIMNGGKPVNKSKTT
T1 sequence (Q9UQD0 1763-1976 limits assumed): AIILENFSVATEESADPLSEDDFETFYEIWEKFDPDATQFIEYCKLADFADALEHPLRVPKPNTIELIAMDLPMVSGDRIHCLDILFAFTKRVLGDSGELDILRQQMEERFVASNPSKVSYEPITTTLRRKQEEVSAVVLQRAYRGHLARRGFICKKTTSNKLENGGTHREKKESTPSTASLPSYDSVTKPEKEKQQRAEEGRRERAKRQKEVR
Sequence of full-length P. pyralis luciferase (P08659 whole entry N50D/N119G/S548I/K549A/L550V, looked up): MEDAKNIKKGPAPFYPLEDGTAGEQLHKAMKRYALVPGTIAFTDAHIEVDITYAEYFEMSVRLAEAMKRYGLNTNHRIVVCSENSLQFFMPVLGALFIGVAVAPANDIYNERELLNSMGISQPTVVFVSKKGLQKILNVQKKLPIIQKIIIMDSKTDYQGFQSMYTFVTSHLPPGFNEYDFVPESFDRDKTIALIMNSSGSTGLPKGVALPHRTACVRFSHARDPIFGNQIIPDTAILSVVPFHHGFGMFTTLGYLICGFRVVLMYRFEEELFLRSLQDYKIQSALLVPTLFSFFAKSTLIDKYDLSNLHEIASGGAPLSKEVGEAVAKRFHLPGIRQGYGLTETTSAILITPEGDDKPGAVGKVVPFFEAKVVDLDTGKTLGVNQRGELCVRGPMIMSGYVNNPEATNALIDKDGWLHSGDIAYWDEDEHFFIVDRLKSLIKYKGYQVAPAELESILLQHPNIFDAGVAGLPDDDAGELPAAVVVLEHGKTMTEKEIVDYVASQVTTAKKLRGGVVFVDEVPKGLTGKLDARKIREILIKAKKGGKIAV

Row | SMILES | Split Luciferase Assay Z-score Set 1 ([1]; CC_NCI screening) | Split Luciferase Assay % Lum Set 1 ([1]; CC_NCI screening) [%] | Split Luciferase Assay Z-score Set 2 ([1]; CC_NCI screening) | Split Luciferase Assay %Lum Set 2 ([1]; CC_NCI screening) [%] | Split Luciferase Assay %Lum Avg [1] [%] | Luciferase Assay % Lum (full-length luciferase counter-screen) [2, 5] [%] | Luciferase Assay Z-score (full-length luciferase counter-screen) [2, 5] | viability at 16 h, 30 µM (in vitro) [%] | Toxicity Assay Z-score (CTB cell viability) (Clone V cells [3]; 16 h, 30 µM) | Split Luciferase Assay % Lum Set 1 [1, 6] [%] | Split Luciferase Assay %Lum Set 2 [1, 6] [%] | Split Luciferase Assay Z-score Set 1 ([1]; CC_NCI screening, LCA) | Split Luciferase Assay Z-score Set 2 ([1]; CC_NCI screening, LCA) | Split Luciferase Assay %Lum Avg ([1]; CC_NCI screening) [%] | Luciferase Assay % Lum [2, 5] [%] | Luciferase Assay Z-score [2, 5] | Toxicity Assay Z-score (Clone V cells [3]; 16 h, 30 µM) | Toxicity Assay % Fluor (Clone V cells [4]) [%] | further results
1 | NC(=O)Nc1cc(-c2cccc(F)c2)sc1C(=O)N[C@H]1CCCNC1 [AZD 7762] | -1.38 | 82.95 | -2.63 | 67.62 | 75.28 | 92.74 | -0.93 |  |  |  |  |  |  |  |  |  |  |  | viability (in vitro): 102%; Toxicity Assay Z-score (CTB cell viability) (Clone V cells [3]): 0.35
2 | CN(C)c1nc(N(C)C)nc(N(C)C)n1 [Altretamine] | -0.59 | 92.73 | 1.85 | 122.76 | 107.74 |  |  | 103 | 0.43 |  |  |  |  |  |  |  |  |  | Luciferase Assay % Lum (full-length luciferase counter-screen) [2]: 97.84%; Luciferase Assay Z-score (full-length luciferase counter-screen) [2]: -0.28
3 | NCC(=O)CCC(=O)O [Aminolevulinic acid hydrochloride] | -0.06 | 99.25 | 0.75 | 109.23 | 104.24 | 100.02 | 0.00 |  | 0.31 |  |  |  |  |  |  |  |  |  | viability at 16 h, 30 µM (in vitro; Clone V cells): 102%
4 | Nc1ncn([C@@H]2O[C@H](CO)[C@@H](O)[C@H]2O)c(=O)n1 [Azacitidine] | -0.32 | 95.99 | 0.24 | 102.99 | 99.49 | 93.68 | -0.81 | 103 | 0.41 |  |  |  |  |  |  |  |  |  | 
5 | O=C(NCCCNc1nc(Nc2cccc(NC(=O)N3CCCC3)c2)ncc1I)c1cccs1 [BX 795] | -4.28 | 47.07 | -5.85 | 28.09 | 37.58 | 70.68 | -3.76 | 103 | 0.47 |  |  |  |  |  |  |  |  |  | 
6 | N#Cc1ccc(C(c2ccc(C#N)cc2)n2cncn2)cc1 [Letrozole] |  |  |  |  |  |  |  |  |  | 99.25 | 115.47 | -0.06 | 1.26 | 107.36 | 99.90 | -0.01 | -0.88 | 93.68 | 
7 | COc1c2occc2cc2ccc(=O)oc12 [Methoxsalen] |  |  |  |  |  | 93.90 | -0.78 | 109 | 1.23 |  |  |  |  |  |  |  |  |  | 
8 | COC1=CC(c2cc3ccccc3[nH]2)=N/C1=C\c1[nH]c(C)cc1C [OBATOCLAX] |  |  |  |  |  |  |  |  |  | 59.03 | 61.38 | -3.31 | -3.14 | 60.20 | 78.33 | -2.78 | -1.76 | 87.39 | 
9 | COC(=O)C[C@](O)(CCCC(C)(C)O)C(=O)O[C@@H]1C(OC)=C[C@]23CCCN2CCc2cc4c(cc2[C@H]13)OCO4 [Omacetaxine mepesuccinate] |  |  |  |  |  |  |  |  |  | 20.98 | 19.77 | -6.39 | -6.53 | 20.37 | 87.82 | -1.56 | -0.87 | 93.81 | 
